According to patent publication US20210017607A1, “Methods of Predicting Responsiveness to Cancer Therapies” (The University of Chicago, priority 2019, published 2021):

Test system: single cell suspensions derived from Myc-CAP (STING^lo) tumors
Experiment: Ex vivo reconstitution assay, IFNβ ELISA
Type: cell-based, mouse
Conditions: for IFNβ production within supernatants: ex vivo drug treatment, 36 hours
Description: FIGS. 15A-15E. Differential STING pathway activation within B6-Myc (STING^hi) cell lines and BMDMs relative to Myc-CAP (STING^lo) cells. (15A, 15B) The indicated cancer cell lines and BMDMs were treated with DMXAA (mouse STING agonist) for 1 and 24 hours, respectively, and protein extracts were interrogated for cGAS/STING pathway activation with the indicated antibodies by Western blotting. Supernatants were collected from for IFNβ1 ELISA following 36 hours of treatment with DMXAA (15C, 15D). (15E) Syngeneic Myc-CAP (STING^lo) tumors were processed into single cell suspensions and used for phycoerythrin-based sorting of CD45+ cellular fractions. Equal numbers of cells from these fractions were stimulated with DMXAA. Supernatants were collected at 36 hrs for detection of IFNB1 by ELISA; n=3 independent experiments; Significance/p-values were calculated by one-way Anova (for 15C & 15E) or paired t-test (for 15D); TAM=tumor associated macrophage; s.e.=short exposure; l.e.=long exposure.
FIGS. 29A-29M. PARPi alone induces DNA DSBs, but not apoptosis even in combination with PI3Ki in Myc-CAP (STING^lo) cancer cells; PARPi/PI3Ki combination induces intracellular DNA DSBs and proportionate release of MV surface-associated DNA DSBs from B6-Myc (STINGhi) cancer cells without affecting cellular viability; PARPi/PI3K treatment activates tumor-cell extrinsic cGAS/STING pathway within TAMs in vivo via MV surface-associated DNA DSBs released from tumor cells. Myc-CAP cancer cells were treated with the indicated drugs singly or in combination for 36 hours. (29A) Cells were stained with anti-mouse specific p-γH2AX antibody and a fluorescently labeled secondary antibody for determination of DNA DSBs, which were quantified by confocal microscopy. (29B) Protein extracts from cells in 29A were analyzed for the indicated pharmacodynamic biomarkers by western blotting; (29C) Annexin V-PI staining was done to assess frequency of live cells (Annexin V^− PI^−) following drug treatment. (29D) Ultracentrifugation was utilized to purify microvesicles (MVs) from supernatants in treatment groups in (29A) and associated DNA DSBs was quantified by Nanodrop®. Independent experiments n=2. (29E) Ultracentrifugation was utilized to purify MVs from supernatants in indicated treatment groups in FIG. 17A, and associated DNA DSBs were quantified by Nanodrop®; n=2 independent experiments. (29F) Syngeneic mice were engrafted with Myc-CAP (STING^lo) cells, and tumors were harvested when the tumor volume reached 400 mm^3. Single cell suspensions of the tumors were treated with the indicated drug(s), in the presence or absence of GW4869 (MV biogenesis inhibitor). (29G) Bone marrow derived macrophage (BMDMs) were co-cultured for 30 hours with supernatants (−/+ exogenous 50 units of DNase I pre-treatment for 30 minutes) from Myc-CAP cells that were treated with the indicated drug(s) for 36 hours. (29H) cGAMP (10 μg/mL) was pre-incubated with 10 units of DNAse I or mock control for 30 minutes and then added to BMDMs for 30 hours. (29I-29L) STING^+/+/STING^−/− BMDMs were co-cultured for 36 hours with supernatants from Myc-CAP and B6-Myc cancer cells that were treated with the indicated drug(s) for 36 hours. Supernatants were collected from 29F-29L at the end of treatment and analyzed for IFNβ1 by ELISA. […] Tumor volume was recorded daily for duration of experiment. […] Significance/p-values were calculated by one-way ANOVA. […]

Row | SMILES | IFN-β response within the CD45-negative tumor cell fraction (ex vivo DMXAA treatment) | fold increase in IFN-β levels within the TME (ex vivo DMXAA treatment) [fold] | IFNβ production within supernatants
1 | Cc1ccc2c(=O)c3cccc(CC(=O)O)c3oc2c1C [DMXAA, 5,6-Dimethylxanthenone-4-acetic Acid] | lack of response | 11.4 | 
2 | Nc1cc(C(F)(F)F)c(-c2cc(N3CCOCC3)nc(N3CCOCC3)n2)cn1 [buparlisib] |  |  | not observed
3 | CNCc1ccc(-c2[nH]c3cc(F)cc4c3c2CCNC4=O)cc1 [rucaparib] |  |  | not observed
